From patent publication US20060276436A1, “Farnesyl dibenzodiazepinone formulation” (Ecopia BioSciences, Inc., priority 2005, published 2006)
“And” between values parts separate entries of the source, which are not always exact repeats. Identical values can stand only once. Marks after values point to notes of the source that are not given here.

What was measured:
[1] = Pharmacokinetics of Formulation D11 given CIV for 14 days in monkeys; type: in vivo, Cynomolgus monkeys; conditions: for Css / T1/2z / Vd / AUC / clearance: 14-day CIV, Mean (SD); for Css: average between 30 h and 14 days; for T1/2z: end of treatment; for Vd / AUC / clearance: iv
Method: Cynomolgus monkeys received continuous IV infusion over 14 days of Compound 1 at 5 mg/kg/day, 15 mg/kg/day, or 30 mg/kg/day. The drug was infused intravenously (24 hours/day) into the femoral vein at a dose rate of 2 ml/kg/hour for 14 consecutive days. Blood samples were removed from each monkey on Days 1, 2, 6, 10, and 15 of the treatment period. Monkeys were bled by venipuncture and samples were collected into tubes containing K2EDTA. On Day 1, samples were collected at 2, 6, and 12 hours after initiation of treatment. Additional samples were collected at 30 hours after the start of infusion (Day 2). On Days 6 and 10, samples were collected at approximately 6 hours after the bag changes. At the end of the 14 days of infusion, on Day 15, samples were collected at 1 hour prior to cessation of dose administration, and at 5 min, 30 min, 1 h, 2 h, 4 h, 8 h, and 24 h following cessation of dose administration.

[2] = Pharmacokinetic study using Formulation D11 (IV, IP, SC) and Formulation C (PO); type: in vivo, Crl: CD1 mice
Method: Formulation D11, at a final concentration of 6 mg/ml of Compound 1 was used for IV, IP and SC bolus administration. […] Prior to dosing, animals (female Crl: CD1 mice; 6 weeks of age, 22-24 g) were weighed, randomly selected and assigned to the different treatment groups. Compound 1 was administered by the intravenous (IV), subcutaneous (SC), intraperitoneal (IP), or oral (PO) route to the assigned animals. The dosing volume of Compound 1 was 5 mL per kg body weight. Animals were anesthetized prior to bleeding with 5% isoflurane. Blood was collected into microtainer tubes containing the anticoagulant K2EDTA by cardiac puncture from each of 4 animals per bleeding timepoint (2 min, 5 min, 15 min, 30 min, 1 h, 2 h, 4 h and 8 h). Following collection, the samples were centrifuged and the plasma obtained from each sample was recovered and stored frozen (at approximately −80° C.) pending analysis. […] Samples were analysed by LC/MS/MS. Standard curve ranged from 25 to 2000 ng/mL with limit of quantitation (LOQ)≦25 ng/mL and limit of detection (LOD) of 10 ng/mL.
Plasma values of Compound 1 falling below the limit of quantitation (LOQ) were set to zero. Mean concentration values and standard deviation (SD) were calculated at each timepoints of the pharmacokinetic study (n=4 animals/timepoint). The following pharmacokinetic parameters were calculated: area under the plasma concentration versus time curve from time zero to the last measurable concentration time point (AUC0-t), area under the plasma concentration versus time curve extrapolated to infinity (AUCinf), maximum observed plasma concentration (Cmax), time of maximum plasma concentration (tmax), apparent first-order terminal elimination rate constant (kel), apparent first-order terminal elimination half-life will be calculated as 0.693/kel (t1/2). The systemic clearance (CL) of Compound 1 after intravenous administration was calculated using Dose/AUCinf. Pharmacokinetic parameters were calculated using Kinetica™ 4.1.1 (Innaphase Corporation, Philadelphia, Pa.).

[3] = tested on: human breast tumor (MDA-MB-231) xenografts; experiment: Human MDA-MB-231 breast cancer mice model; type: in vivo, HRLN female nude mice; conditions: Intravenous treatment, 100 mg/kg 5/2/5/2/5
Method: The antitumor activity of Compound 1 was further tested in a human MD-MB-231 breast cancer model in mice, using formulation D11 at 6 and 10 mg/mL concentrations (see Table 8). HRLN female nude mice (8 weeks of age) were treated with 5×10^6 MDA-MB-231 tumor cells (sc) in the right flank. Animals were randomized (ten per group) when tumors reach an average size of 80-120 mg and treatment began according to the table below.
Tumor measurements were taken twice weekly using calipers and were converted to tumor mass (in milligrams) using the formula: with^2 (mm)×length (mm)×0.52. Body weights were also recorded twice weekly. Statistical analysis was done using the unpaired two-tailed Student's t test.

[4] = Population pharmacokinetic analysis (NONMEM), rat; type: in vivo; conditions: plasma, Rat (IV + CIV); for Vd: read-out: Vss; for half-life: rat, iv
Source text: (§1) Plasma concentrations of Compound 1 were obtained from mice, rats, and monkeys following intravenous injection or continuous infusion. Compound 1 pharmacokinetic parameters in mice, rats, and monkeys were estimated using population pharmacokinetic analysis, a function of the software program NONMEM™ (version 5). Typical population pharmacokinetic parameters for Compound 1 in humans were extrapolated from allometric equations that were derived from pharmacokinetic parameters estimated in the three animal species. […] A two-compartment model with a first-order elimination from the central compartment adequately described Compound 1 plasma concentration-time profiles following intravenous bolus injection (30 mg/kg) in mice and rats, 7-day continuous infusion in rats (50 to 170 mg/kg/day), and 14-day continuous infusion in monkeys (5 to 30 mg/kg/day).

[5] = Population pharmacokinetic analysis (NONMEM), mouse; type: in vivo; conditions: 30 mg/kg; for half-life: CD1, mouse, plasma, iv; for clearance / Vd: CD1, plasma, Mouse (IV); for Vd: read-out: Vss
Source text: as §1

[6] = cynomolgus monkey, plasma, intravenous, CIV, 30 mg/kg/day
[7] = cynomolgus monkey, plasma, 5 mg/kg/day
[8] = cynomolgus monkey, plasma, 15 mg/kg/day
[9] = population PK, read-out: t1/2, α (converted)
[10] = population PK, read-out: t1/2, β (converted)

CC(C)=CCC/C(C)=C/CC/C(C)=C/CN1C(=O)c2cccc(O)c2Nc2c(O)cc(O)cc21 [Compound 1, 10-farnesyl-4,6,8-trihydroxy-dibenzodiazepin-11-one]
AUC increase between groups ([1]; 15 mg/kg/day versus 5 mg/kg/day): 3.4 fold | AUC increase between groups ([1]; 30 mg/kg/day versus 15 mg/kg/day): 4.7 fold | Css ([1]; 5 mg/kg/day): 358^b (85)^ ng/mL | T1/2z ([1]; 5 mg/kg/day): 12 (3) h | Css ([1]; 15 mg/kg/day): 1,173 (340) ng/mL | T1/2z ([1]; 15 mg/kg/day): 8.3 (2.2) h | Css ([1]; 30 mg/kg/day): 6,283 (3,650) ng/mL | T1/2z ([1]; 30 mg/kg/day): 8.1 (1.0) h | concentration at 1 day [1, 6]: 2810 ng/mL and ~6.1 µM | concentration at 6 day [1, 6]: 4350 ng/mL and ~9.4 µM | concentration at 10 day [1, 6]: ~15 µM and 6860 ng/mL | concentration at 15 day [1, 6]: 8560 ng/mL and ~18.5 µM | Vd ([1]; cynomolgus monkey, plasma, 5 mg/kg/day, 5 mg/kg/day, read-out: Vss): 7.1 L/kg | Vd ([1]; cynomolgus monkey, plasma, 5 mg/kg/day, 5 mg/kg/day, read-out: Vz): 10 L/kg | Vd ([1]; cynomolgus monkey, plasma, 15 mg/kg/day, 15 mg/kg/day, read-out: Vss): 3.6 L/kg | AUC [1, 7]: 119 µg·h/mL | clearance [1, 7]: 10.2 mL/min/kg | AUC [1, 8]: 400 µg·h/mL | clearance [1, 8]: 9.33 mL/min/kg | AUC ([1]; cynomolgus monkey, plasma, 30 mg/kg/day): 1870 µg·h/mL | Vd ([1]; cynomolgus, cynomolgus monkey, plasma, 15 mg/kg/day, 15 mg/kg/day, read-out: Vz): 6.8 L/kg | Vd ([1]; cynomolgus, cynomolgus monkey, plasma, 30 mg/kg/day, 30 mg/kg/day, read-out: Vss): 10.7 L/kg | Vd ([1]; cynomolgus, cynomolgus monkey, plasma, 30 mg/kg/day, 30 mg/kg/day, read-out: Vz): 3.2 L/kg | clearance ([1]; cynomolgus, cynomolgus monkey, plasma, 30 mg/kg/day): 4.5 mL/min/kg | tissue distribution (in words) ([2]; IV and IP dosing 30 mg/kg, 30 min): well distributed | tissue levels (in words) ([2]; SC dosing 30 mg/kg, 30 min, versus IP): significantly lower | time plasma concentration maintained at therapeutically relevant levels ([2]; intraperitoneal and subcutaneous administrations, 30 mg/kg, Formulation D11): over 8 hours | antitumor activity (in words) [3]: did not result in activity | clearance ([4]; WT 0.225 Kg): 4.08 mL/min | Vd ([4]; WT 0.225 Kg): 0.081 L | clearance ([4]; population PK): 18.2 mL/min/kg | Vd ([4]; population PK): 0.362 L/kg | half-life [4, 9]: 0.075 h | half-life [4, 10]: 2.5 h | half-life [5, 9]: 0.078 h | half-life [5, 10]: 2.49 h | clearance ([5]; WT 0.022 Kg): 0.533 mL/min | Vd ([5]; WT 0.022 Kg): 0.009 L | clearance ([5]; population PK): 24.8 mL/min/kg | Vd ([5]; population PK): 0.401 L/kg
